Measured values reported in US12110293B2, “Substituted triazolo quinoxaline derivatives” (GRÜNENTHAL GMBH, priority 2018, dated 2024).

Each compound was assayed against T1, glucocorticoid receptor (Homo sapiens, UniProt P04150) (assay: Agonistic mode of action on the glucocorticoid receptor (CHO-Gal4/GR luciferase reporter cell line)). Conditions: range class observed in the agonistic assay or the antagonistic assay (CHO-Gal4/GR reporter cells); table does not say which mode applies per example.
T1 construct: expressed in transfected cells
T1 sequence (P04150 524-758 limits assumed): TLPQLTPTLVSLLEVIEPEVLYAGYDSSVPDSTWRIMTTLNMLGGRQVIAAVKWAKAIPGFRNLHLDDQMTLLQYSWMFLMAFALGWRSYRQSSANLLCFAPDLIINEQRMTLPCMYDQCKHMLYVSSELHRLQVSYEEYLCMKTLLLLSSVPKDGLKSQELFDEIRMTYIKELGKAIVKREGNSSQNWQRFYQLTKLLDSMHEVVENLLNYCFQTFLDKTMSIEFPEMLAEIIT
Format: cell-based
Excerpt: Potential selective glucocorticoid receptor modulators of this intervention can be tested for modulation of the activity of the glucocorticoid receptor using cell-based assays. These assays involve a Chinese hamster ovary (CHO) cell line which contains fragments of the glucocorticoid receptor as well as fusion proteins. The glucocorticoid receptor fragments used are capable of binding the ligand (e.g. beclomethasone) to identify molecules that compete for binding with glucocorticoid receptor ligands. In more detail, the glucocorticoid receptor ligand binding domain is 25 fused to the DNA binding domain (DBD) of the transcriptionfactor GAL4 (GAL4 DBD-GR) and is stably integrated into a CHO cell line containing a GAL4-UAS-Luciferase reporter construct. […] After cell lysis the luminescence that is produced by luciferase after addition of the substrate is detected and EC50 or IC50 values can be calculated. Engagement of molecules which induce gene expression via glucocortocoid receptor binding to the DNA leads to expression of the luciferase gene under the control of the fusion protein GAL4 DBD-GR and therefore to a dose-dependent increase of the luminescence signal. Binding of molecules which repress beclomethasone-induced gene expression of the luciferase gene under the control of the fusion protein GAL4 DBD-GR leads to a dose-dependent reduction of the luminescence signal.
Biological Assays Agonistic Mode of Action on the Glucocorticoid Receptor
The reporter cell line CHO-Gal4/GR consisted of a Chinese hamster ovary (CHO) cell line (Leibniz Institute DSMZ—German Collection of Microorganisms and Cell CuItures GmbH: ACC-110) containing a firefly luciferase gene under the control of the GR ligand binding domain fused to the DNA binding domain (DBD) of GAL4 (GAL4 DBD-GR) stably integrated into CHO cells. This cell line was established by stable transfection of CHO cells with a GAL4-UAS-Luciferase reporter construct. In a subsequent step the ligand binding domain of the GR cloned into pIRES2-EGFP-GAL4 containing the DNA binding domain of GAL4 from pFA-AT2 was transfected. This fusion construct activated firefly luciferase expression under the control of a multimerized GAL4 upstream activation sequence (UAS). The signal of the emitted luminescence was recorded by the FLIPR^TETRA. This allowed for specific detection of ligand-induced activation of the GR and therefore for the identification of compounds with agonistic properties. The GAL4/UAS reporter was premixed with a vector that constitutively expressed Renilla luciferase, which served as an internal positive control for transfection efficiency.
The complete culture medium for the assay was: • DMEM F-12 (1:1) MIXTURE (LONZA cat. N°: BE04-687F/U1) 500 mL • 5 mL of 100 mM Sodium Pyruvate (LONZA cat. N°: BE12-115E) • 25 mL of 7.5% Sodium Bicarbonate (LONZA cat. N° BE17-613E) • 6.5 mL of 1 M Hepes (LONZA cat. N°: BE17-737E) • 5 mL of 100× Penicillin/Streptomycin (LONZA cat. N° DE17-602E) • 50 mL of Fetal Bovine Serum (Euroclone cat. N° ECS 0180L) • 0.25 mL of 10 mg/mL Puromycin (InvivoGen cat.: ant-pr-1) • 0.5 mL of 100 mg/mL Zeocin (InvivoGen cat.: ant-zn-1)
Cryo-preserved CHO-Gal4/GR cells were suspended in complete medium and 5000 cells/25 μl/well were seeded into the wells of 384-well polystyrene assay plates (Thermo Scientific, cat. #4332) and cultured at 37° C., 5% CO2 and 95% humidity. After 24 hours growth medium was carefully removed and replaced by 30 μl Opti-MEM (GIBCO, cat. #31985062) as assay buffer. To test the compounds an 8-point half-log compound dilution curve was generated in 100% DMSO starting from a 2 mM stock and compounds were then diluted 1:50 in Opti-MEM. 10 μl of compounds were then added to the wells containing 30 μl Opti-MEM resulting in a final assay concentration range from 10 μM to 0.003 μM in 0.5% DMSO. Compounds were tested at 8 concentrations in quadruplicate data points.

IC50 or EC50 (agonist or antagonist mode not specified) [nM] | SMILES
100 to 1000 | Cc1nnc2n1-c1c(cc(F)c(-c3cccc4c3ccn4CC(F)F)c1F)NC2(C)C [Example 253, 8-[1-(2,2-Difluoro-ethyl)-1H-indol-4-yl]-7,9-difluoro-1,4,4-trimethyl-5H-[1,2,4]triazolo[4,3-a]quinoxaline]
100 to 1000 | COc1cc2c(c(C)c1-c1cc(F)cc3c(C)c[nH]c13)-n1c(C)nnc1C(C)(C)N2 [Example 345, 8-(5-Fluoro-3-methyl-1H-indol-7-yl)-7-methoxy-1,4,4,9-tetramethyl-5H-[1,2,4]triazolo[4,3-a]quinoxaline]
1000 to 15000 | CCc1nnc2n1-c1c(cc(F)c(-c3cc(F)cc4c(C#N)c[nH]c34)c1F)NC2(C)C [Example 15, 7-(1-ethyl-7,9-difluoro-4,4-dimethyl-4,5-dihydro-[1,2,4]triazolo[4,3-a]quinoxalin-8-yl)-5-fluoro-1H-indole-3-carbonitrile]
100 to 1000 | Cc1nnc2n1-c1c(cc(F)c(-c3cccc4c3cnn4C)c1F)NC2(C)C [Example 221, 7,9-Difluoro-1,4,4-trimethyl-8-(1-methyl-1H-indazol-4-yl)-5H-[1,2,4]triazolo[4,3-a]quinoxaline]
100 to 1000 | Cc1nnc2n1-c1c(cc(F)c(-c3cc(F)cc4c3ccn4CC(F)(F)F)c1F)NC2(C)C [Example 21, 7,9-difluoro-8-(6-fluoro-1-(2,2,2-trifluoroethyl)-1H-indol-4-yl)-1,4,4-trimethyl-4,5-dihydro-[1,2,4]triazolo[4,3-a]quinoxaline]
1000 to 15000 | Cc1nnc2n1-c1c(cc(F)c(-c3cccc4c3cnn4S(=O)(=O)C3CC3)c1F)NC2(C)C [Example 234, 8-[1-(Cyclopropylsulfonyl)-1H-indazol-4-yl]-7,9-difluoro-1,4,4-trimethyl-5H-[1,2,4]triazolo[4,3-a]quinoxaline]
100 to 1000 | Cc1cc2c(c(C)c1-c1cc(F)cc3c1ccn3S(C)(=O)=O)-n1c(C)nnc1C(C)(C)N2 [Example 328, 8-(6-Fluoro-1-methylsulfonyl-1H-indol-4-yl)-1,4,4,7,9-pentamethyl-5H-[1,2,4]triazolo[4,3-a]quinoxaline]
1000 to 15000 | COCCn1ccc2c(-c3c(OC)cc4c(c3F)-n3c(C)nnc3C(C)(C)N4)cc(F)cc21 [Example 353, 9-Fluoro-8-[6-fluoro-1-(2-methoxy-ethyl)-1H-indol-4-yl]-7-methoxy-1,4,4-trimethyl-5H-[1,2,4]triazolo [4,3-a]quinoxaline]
< 100 | Cc1c(-c2cc(F)cc3c(C)c[nH]c23)c(Cl)cc2c1-n1c(C)nnc1C(C)(C)N2 [Example 363, 7-Chloro-8-(5-fluoro-3-methyl-1H-indol-7-yl)-1,4,4,9-tetramethyl-5H-[1,2,4]triazolo[4,3-a]quinoxaline]
100 to 1000 | Cc1nnc2n1-c1c(cc(F)c(-c3cc(C(F)(F)F)cc4[nH]ccc34)c1F)NC2(C)C [Example 207, 7,9-Difluoro-1,4,4-trimethyl-8-[6-(trifluoromethyl)-1H-indol-4-yl]-5H-[1,2,4]triazolo[4,3-a]quinoxaline]
1000 to 15000 | Cc1nnc2n1-c1c(cc(F)c(-c3cccc4c3ccn4S(=O)(=O)C3CCCC3)c1F)NC2(C)C [Example 201, 8-[1-(Cyclopentylsulfonyl)-1H-indol-4-yl]-7,9-difluoro-1,4,4-trimethyl-5H-[1,2,4]triazolo[4,3-a]quinoxaline]
100 to 1000 | CCc1c(-c2cc(F)cc3c2cnn3CCO)c(F)cc2c1-n1c(C)nnc1C(C)(C)N2 [Example 45, 2-[4-(9-Ethyl-7-fluoro-1,4,4-trimethyl-5H-[1,2,4]triazolo[4,3-a]quinoxalin-8-yl)-6-fluoro-1H-indazol-1-yl]-ethanol]
